Experiments:
Test in all cases: relative viability (nuclei count vs DMSO), 5 days (fraction); higher = more cells survive
NCI-H1792 = test system: NCI-H1792
How it was run: (§1)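 Medians of duplicate plates are given as relative viability. That measure is the nuclei count in treated wells divided by the count in vehicle wells. Counts were taken on 4× images of lung cancer cell lines in 1536-well plates, 5 days after pin-tool dosing the day after seeding with one drug alone or a fixed anchor-drug dose plus five library-drug doses (not always all listed) in √10 steps.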

NCI-H1993 = test system: NCI-H1993
How it was run: as §1

HCC-15 = test system: HCC-15
How it was run: as §1

NCI-H838 = test system: NCI-H838
How it was run: as §1

NCI-H358 = test system: NCI-H358
How it was run: as §1

COR-L23 = test system: COR-L23
How it was run: as §1

NCI-H647 = test system: NCI-H647
How it was run: as §1

NCI-H1395 = test system: NCI-H1395
How it was run: as §1

NCI-H1734 = test system: NCI-H1734
How it was run: as §1

NCI-H2009 = test system: NCI-H2009
How it was run: as §1

NCI-H1755 = test system: NCI-H1755
How it was run: as §1

NCI-H1793 = test system: NCI-H1793
How it was run: as §1

UMC-11 = test system: UMC-11
How it was run: as §1

HOP-62 = test system: HOP-62
How it was run: as §1

NCI-H522 = test system: NCI-H522
How it was run: as §1

NCI-H2170 = test system: NCI-H2170
How it was run: as §1

COR-L 105 = test system: COR-L 105
How it was run: as §1

NCI-H1355 = test system: NCI-H1355
How it was run: as §1

SK-MES-1 = test system: SK-MES-1
How it was run: as §1

NCI-H2228 = test system: NCI-H2228
How it was run: as §1

NCI-H2347 = test system: NCI-H2347
How it was run: as §1

HARA = test system: HARA
How it was run: as §1

O=c1cc(N2CCOCC2)oc2c(-c3cccc4c3sc3ccccc34)cccc12 + Nc1nc2[nH]cc(CCc3ccc(C(=O)N[C@@H](CCC(=O)O)C(=O)O)cc3)c2c(=O)[nH]1 [Pemetrexed] (partner 0.2 µM)
relative viability (NCI-H1792; first compound 0.01 µM): 0.835
relative viability (NCI-H1792; first compound 0.03162 µM): 0.901
relative viability (NCI-H1792; first compound 0.3162 µM): 0.836
relative viability (NCI-H1792; first compound 1 µM): 0.759
relative viability (NCI-H1993; first compound 0.01 µM): 0.624
relative viability (NCI-H1993; first compound 0.03162 µM): 0.524
relative viability (NCI-H1993; first compound 0.1 µM): 0.621
relative viability (NCI-H1993; first compound 0.3162 µM): 0.54
relative viability (NCI-H1993; first compound 1 µM): 0.553
relative viability (HCC-15; first compound 0.01 µM): 0.214
relative viability (HCC-15; first compound 0.03162 µM): 0.221
relative viability (HCC-15; first compound 0.1 µM): 0.225
relative viability (HCC-15; first compound 0.3162 µM): 0.205
relative viability (HCC-15; first compound 1 µM): 0.195
relative viability (NCI-H838; first compound 0.01 µM): 0.255
relative viability (NCI-H838; first compound 0.03162 µM): 0.237
relative viability (NCI-H838; first compound 0.1 µM): 0.241
relative viability (NCI-H838; first compound 0.3162 µM): 0.227
relative viability (NCI-H838; first compound 1 µM): 0.26
relative viability (NCI-H358; first compound 0.01 µM): 0.166
relative viability (NCI-H358; first compound 0.03162 µM): 0.179
relative viability (NCI-H358; first compound 0.1 µM): 0.181
relative viability (NCI-H358; first compound 0.3162 µM): 0.18
relative viability (NCI-H358; first compound 1 µM): 0.173
relative viability (COR-L23; first compound 0.01 µM): 0.189
relative viability (COR-L23; first compound 0.03162 µM): 0.204
relative viability (COR-L23; first compound 0.1 µM): 0.203
relative viability (COR-L23; first compound 0.3162 µM): 0.201
relative viability (COR-L23; first compound 1 µM): 0.204
relative viability (NCI-H647; first compound 0.01 µM): 0.187
relative viability (NCI-H647; first compound 0.03162 µM): 0.183
relative viability (NCI-H647; first compound 0.1 µM): 0.184
relative viability (NCI-H647; first compound 0.3162 µM): 0.209
relative viability (NCI-H647; first compound 1 µM): 0.178
relative viability (NCI-H1395; first compound 0.03162 µM): 0.908
relative viability (NCI-H1395; first compound 0.1 µM): 0.909
relative viability (NCI-H1395; first compound 0.3162 µM): 1.01
relative viability (NCI-H1395; first compound 1 µM): 0.855
relative viability (NCI-H1734; first compound 0.01 µM): 0.453
relative viability (NCI-H1734; first compound 0.03162 µM): 0.425
relative viability (NCI-H1734; first compound 0.1 µM): 0.406
relative viability (NCI-H1734; first compound 0.3162 µM): 0.412
relative viability (NCI-H1734; first compound 1 µM): 0.396
relative viability (NCI-H2009; first compound 0.01 µM): 0.929
relative viability (NCI-H2009; first compound 0.03162 µM): 1.04
relative viability (NCI-H2009; first compound 0.1 µM): 1.01
relative viability (NCI-H2009; first compound 0.3162 µM): 1.01
relative viability (NCI-H2009; first compound 1 µM): 0.998
relative viability (NCI-H1755; first compound 0.01 µM): 0.476
relative viability (NCI-H1755; first compound 0.03162 µM): 0.441
relative viability (NCI-H1755; first compound 0.1 µM): 0.425
relative viability (NCI-H1755; first compound 0.3162 µM): 0.414
relative viability (NCI-H1755; first compound 1 µM): 0.445
relative viability (NCI-H1793; first compound 0.01 µM): 0.776
relative viability (NCI-H1793; first compound 0.03162 µM): 0.728
relative viability (NCI-H1793; first compound 0.1 µM): 1.01
relative viability (NCI-H1793; first compound 0.3162 µM): 0.961
relative viability (NCI-H1793; first compound 1 µM): 0.74
relative viability (UMC-11; first compound 0.01 µM): 0.738
relative viability (UMC-11; first compound 0.03162 µM): 0.66
relative viability (UMC-11; first compound 0.1 µM): 0.868
relative viability (UMC-11; first compound 0.3162 µM): 0.805
relative viability (UMC-11; first compound 1 µM): 0.789
relative viability (HOP-62; first compound 0.01 µM): 0.303
relative viability (HOP-62; first compound 0.03162 µM): 0.344
relative viability (HOP-62; first compound 0.1 µM): 0.276
relative viability (HOP-62; first compound 0.3162 µM): 0.39
relative viability (HOP-62; first compound 1 µM): 0.384
relative viability (NCI-H522; first compound 0.01 µM): 1.11
relative viability (NCI-H522; first compound 0.03162 µM): 1.02
relative viability (NCI-H522; first compound 0.1 µM): 1.08
relative viability (NCI-H522; first compound 0.3162 µM): 1.13
relative viability (NCI-H522; first compound 1 µM): 0.831
relative viability (NCI-H2170; first compound 0.01 µM): 0.253
relative viability (NCI-H2170; first compound 0.03162 µM): 0.251
relative viability (NCI-H2170; first compound 0.1 µM): 0.263
relative viability (NCI-H2170; first compound 0.3162 µM): 0.267
relative viability (NCI-H2170; first compound 1 µM): 0.255
relative viability (COR-L 105; first compound 0.01 µM): 1.09
relative viability (COR-L 105; first compound 0.03162 µM): 0.949
relative viability (COR-L 105; first compound 0.1 µM): 1.1
relative viability (COR-L 105; first compound 0.3162 µM): 0.997
relative viability (COR-L 105; first compound 1 µM): 0.854
relative viability (NCI-H1355; first compound 0.01 µM): 1.12
relative viability (NCI-H1355; first compound 0.03162 µM): 0.915
relative viability (NCI-H1355; first compound 0.1 µM): 1.05
relative viability (NCI-H1355; first compound 0.3162 µM): 1.1
relative viability (NCI-H1355; first compound 1 µM): 0.981
relative viability (SK-MES-1; first compound 0.01 µM): 0.868
relative viability (SK-MES-1; first compound 0.03162 µM): 0.943
relative viability (SK-MES-1; first compound 0.1 µM): 0.906
relative viability (SK-MES-1; first compound 0.3162 µM): 0.821
relative viability (SK-MES-1; first compound 1 µM): 0.91
relative viability (NCI-H2228; first compound 0.01 µM): 0.342
relative viability (NCI-H2228; first compound 0.03162 µM): 0.356
relative viability (NCI-H2228; first compound 0.1 µM): 0.396
relative viability (NCI-H2228; first compound 0.3162 µM): 0.356
relative viability (NCI-H2228; first compound 1 µM): 0.355
relative viability (NCI-H2347; first compound 0.01 µM): 0.458
relative viability (NCI-H2347; first compound 0.03162 µM): 0.472
relative viability (NCI-H2347; first compound 0.1 µM): 0.415
relative viability (NCI-H2347; first compound 0.3162 µM): 0.433
relative viability (NCI-H2347; first compound 1 µM): 0.44
relative viability (HARA; first compound 0.01 µM): 0.217
relative viability (HARA; first compound 0.03162 µM): 0.271
relative viability (HARA; first compound 0.1 µM): 0.225
relative viability (HARA; first compound 0.3162 µM): 0.238
relative viability (HARA; first compound 1 µM): 0.262
